Assay results taken from patent publication US8658798B2, “Herbicide triazolylpyridine ketones” (Bayer Cropscience AG, priority 2007, dated 2014).

How the values were obtained:
Type in all cases: in vivo
[1] = tested on: livid amaranth (Amaranthus); assay: Herbicide effect test against field weed (soil spray treatment before germination), Test example 1; details: dosage 500 g ai/ha, 2 weeks after treatment, 100% = complete death, 0% = no effect
Experimental: (§1) • Preparing preparation of active compound • Carrier: DMF 5 parts by weight • Emulsifier: benzyloxy polyglycol ether 1 part by weight
(§2) A preparation of active compound is obtained as an emulsion by mixing 1 part by weight of active compound with the above amounts of carrier and emulsifier. A prescribed amount of preparation is diluted with water.
(§3) In a greenhouse, seeds of field weeds [livid amaranth (Amaranthus), green bristle grass (Setaria)] were sown on the surface layer of 16 cm^2 pots filled with field soil (sandy loam) , and covered with soil. Here, one kind of grass was sown for one pot. Immediately after sowing, the prescribed diluted solutions which were prepared according to the above preparation method of the preparation of respective active compounds were sprayed to soil. After 2 weeks from the treatment, the herbicide effect of each of the compounds was examined. In the evaluation of herbicide effect, complete death was evaluated as 100%, and the case of no herbicide effect was evaluated as 0%. When the herbicide effect is 80% or more, such active compounds are evaluated to have practical utility as a herbicide.

[2] = tested on: green bristle grass (Setaria); assay: as above; details: dosage 500 g ai/ha, 2 weeks after treatment, 100% = complete death, 0% = no effect
Experimental: as §1, §2, §3

[3] = tested on: livid amaranth (Amaranthus); assay: Selective herbicide effect test to field crop (soil spray treatment before germination), Test example 3, herbicide effect; details: 2 weeks after treatment, 100% = complete death
Experimental: as §1, §2
(§4) In a greenhouse, seeds of field crops [wheat (Triticum), corn (Zea), soy bean (Glycine)] and weeds [barnyardgrass (Echinochloa), southern crabgrass (Digitaria), livid amaranth (Amaranthus), fat hen (Chenopodium)] were sown on the surface layer of 16 cm^2 pots filled with field soil (sandy loam), and covered with soil. After 1 day, the prescribed diluted solutions of preparations of respective active compounds, which were prepared according to Test example 1, were sprayed to the soil. After 2 weeks from the treatment, phytotoxicity to crops and herbicide effect of respective compounds were examined. In the evaluation of herbicide effect and phytotoxicity, complete death was evaluated as 100%, and the case of no herbicide effect or no phytotoxicity was evaluated as 0%. When the herbicide effect is 80% or more, such active compounds are evaluated to have practical utility as a herbicide. When phytotoxicity is 20% or less, such active compounds are evaluated to have excellent safety as a herbicide.

[4] = tested on: southern crabgrass (Digitaria); assay: as above; details: 2 weeks after treatment, 100% = complete death
Experimental: as §1, §2, §4

[5] = tested on: barnyardgrass (Echinochloa); assay: as above; details: 2 weeks after treatment, 100% = complete death
Experimental: as §1, §2, §4

fat hen (Chenopodium) = assay: as above; details: 2 weeks after treatment, 100% = complete death
Experimental: as §1, §2, §4

corn (Zea) = assay: Selective herbicide effect test to field crop (soil spray treatment before germination), Test example 3, phytotoxicity; details: 2 weeks after treatment, 100% = complete death, 0% = no phytotoxicity
Experimental: as §1, §2, §4

wheat (Triticum) = assay: as above; details: 2 weeks after treatment, 100% = complete death, 0% = no phytotoxicity
Experimental: as §1, §2, §4

soy bean (Glycine) = assay: as above; details: 2 weeks after treatment, 100% = complete death, 0% = no phytotoxicity
Experimental: as §1, §2, §4

soy bean = assay: Selective herbicide effect test to field crop (foliage spray treatment after germination), Test example 4, phytotoxicity; details: 14 days after spraying, 100% = complete death, 0% = no phytotoxicity
Experimental: as §1, §2, §4
(§5) In a greenhouse, respective seeds of weeds (barnyardgrass, southern crabgrass, fat hen, and livid amaranth) and crops (wheat, corn, and soy bean) were sown on the surface layer of pots filled with field soil, and covered with soil. After one day and 10 days (average 2nd leaf stage for weeds) from the sowing and covering the seeds with soil, the prescribed diluted solutions of preparations of respective active compounds, which were prepared according to Test example 1, were uniformly sprayed onto the soil surfaces of respective test pots and the foliage parts of the plant bodies.
(§6) After 14 days from the spraying, the degree of herbicide effect was examined. Evaluation of herbicide effect and phytotoxicity were carried out similarly to Test example 3.

wheat = assay: as above; details: 14 days after spraying, 100% = complete death, 0% = no phytotoxicity
Experimental: as §1, §2, §4, §5, §6

corn = assay: as above; details: 14 days after spraying, 100% = complete death, 0% = no phytotoxicity
Experimental: as §1, §2, §4, §5, §6

barnyardgrass = assay: Selective herbicide effect test to field crop (foliage spray treatment after germination), Test example 4, herbicide effect; details: 14 days after spraying, 100% = complete death, 0% = no effect
Experimental: as §1, §2, §4, §5, §6

livid amaranth = assay: as above; details: 14 days after spraying, 100% = complete death, 0% = no effect
Experimental: as §1, §2, §4, §5, §6

southern crabgrass = assay: as above; details: 14 days after spraying, 100% = complete death, 0% = no effect
Experimental: as §1, §2, §4, §5, §6

fat hen = assay: as above; details: 14 days after spraying, 100% = complete death, 0% = no effect
Experimental: as §1, §2, §4, §5, §6

Green bristle grass = assay: Herbicide effect test against field weed (foliage spray treatment after germination), Test example 2; details: foliage spray treatment after germination (2nd-3rd leaf stage); dosage 500 g ai/ha; 2 weeks after treatment; 100% = complete death
Experimental: as §1, §2, §3
In a greenhouse, to 16 cm^2 pots filled with field soil (sandy loam), seedling plants (2nd-3rd leaf stage) of a field weed (Green bristle grass) were transplanted. After 1 day, the prescribed diluted solutions of preparations of respective active compounds, which were prepared according to the above Test example 1, were sprayed from the upside of the plant body. After 2 weeks from the treatment, the herbicide effect of each of the compounds was examined. Evaluation of herbicidal effect was carried out similarly to Test example 1.

Structure (SMILES) | Herbicide effect, Livid amaranth ([3]; dosage 320 g/ha) [%] | herbicide effect, Southern crabgrass ([4]; dosage 320 g/ha) [%] | herbicide effect, Barnyardgrass ([5]; dosage 320 g/ha) [%] | herbicide effect, Fat hen (fat hen (Chenopodium); dosage 320 g/ha) [%] | phytotoxicity, Soy bean (soy bean; 320 g/ha) [%] | phytotoxicity, Wheat (wheat; 320 g/ha) [%] | phytotoxicity, Corn (corn; 320 g/ha) [%] | herbicide effect, Barnyardgrass (barnyardgrass; 320 g/ha) [%] | Herbicide effect, Livid amaranth (livid amaranth; 320 g/ha) [%] | herbicide effect, Southern crabgrass (southern crabgrass; 320 g/ha) [%] | herbicide effect, Fat hen (fat hen; 320 g/ha) [%] | Herbicide effect, Green bristle grass (Green bristle grass) [%] | also measured
Cc1nc(-n2cncn2)ccc1C(=O)C1C(=O)CCCC1=O [1-1, 2-{[2-methyl-6-(1H-1,2,4-triazol-1-yl)pyridin-3-yl]carbonyl}cyclohexan-1,3-dione] | 80 | 100 | 100 | 100 | – | – | – | – | – | – | – | – | Herbicide effect, Livid amaranth [1]: 100%; Herbicide effect, Green bristle grass [2]: 100%
O=C1CCCC(O)=C1C(=O)c1ccc(-n2cncn2)nc1COCC(F)(F)F [1-28] | 90 | 100 | 100 | 100 | – | – | – | – | – | – | – | – | phytotoxicity, Corn (corn (Zea); dosage 320 g/ha): 5%; phytotoxicity, Wheat (wheat (Triticum); dosage 320 g/ha): 0%; phytotoxicity, Soy bean (soy bean (Glycine); dosage 320 g/ha): 10%
CSCc1nc(-n2cncn2)ccc1C(=O)C1=C(O)CCCC1=O [1-36] | – | – | – | – | 50 | 0 | 10 | 100 | 80 | 100 | 90 | 100 | –
CS(=O)(=O)Cc1nc(-n2cncn2)ccc1C(=O)C1=C(O)CCCC1=O [1-56] | – | – | – | – | 50 | 0 | 50 | 100 | 80 | 100 | 90 | – | –
COCCOCc1nc(-n2cncn2)ccc1C(=O)C1=C(O)CCCC1=O [1-66] | – | – | – | – | 50 | 10 | 50 | 100 | 100 | 100 | 100 | 90 | –
Cc1nc(-n2cncn2)ccc1C(=O)C1=C(O)CCC(C)C1=O (stereo not shown) [1-115] | 90 | 100 | 100 | 100 | – | – | – | – | – | – | – | 100 | phytotoxicity, Corn (corn (Zea); dosage 320 g/ha): 0%; phytotoxicity, Wheat (wheat (Triticum); dosage 320 g/ha): 0%; phytotoxicity, Soy bean (soy bean (Glycine); dosage 320 g/ha): 10%
Cc1nc(-n2cncn2)ccc1C(=O)C1=C(O)CCC(C)(C)C1=O [1-457] | – | – | – | – | 40 | 20 | 50 | 100 | 100 | 100 | 100 | 100 | –
Cc1nc(-n2cncn2)ccc1C(=O)C1=C(O)C(C)(C)C(=O)C(C)(C)C1=O [1-685] | – | – | – | – | – | – | – | – | – | – | – | – | phytotoxicity, Corn (corn (Zea); dosage 80 g/ha): 30%; phytotoxicity, Wheat (wheat (Triticum); dosage 80 g/ha): 40%; phytotoxicity, Soy bean (soy bean (Glycine); dosage 80 g/ha): 10%; Herbicide effect, Livid amaranth ([3]; dosage 80 g/ha): 90%; herbicide effect, Southern crabgrass ([4]; dosage 80 g/ha): 100%; herbicide effect, Barnyardgrass ([5]; dosage 80 g/ha): 100%; herbicide effect, Fat hen (fat hen (Chenopodium); dosage 80 g/ha): 90%
Cc1nc(-n2cncn2)ccc1C(=O)c1cnn(C)c1O [2-1] | – | – | – | – | – | – | – | – | – | – | – | – | phytotoxicity, Soy bean (soy bean; 80 g/ha): 50%; phytotoxicity, Wheat (wheat; 80 g/ha): 0%; phytotoxicity, Corn (corn; 80 g/ha): 5%; herbicide effect, Barnyardgrass (barnyardgrass; 80 g/ha): 100%; Herbicide effect, Livid amaranth (livid amaranth; 80 g/ha): 100%; herbicide effect, Southern crabgrass (southern crabgrass; 80 g/ha): 95%; herbicide effect, Fat hen (fat hen; 80 g/ha): 90%; Herbicide effect, Livid amaranth [1]: 100%; Herbicide effect, Green bristle grass [2]: 100%
Cc1nc(-n2cncn2)ccc1C(=O)c1c(C)nn(C)c1O [2-229] | – | – | – | – | 60 | 10 | 50 | 100 | 100 | 100 | 90 | – | Herbicide effect, Livid amaranth [1]: 100%; Herbicide effect, Green bristle grass [2]: 100%
Cc1nc(-n2cncn2)ccc1C(=O)c1cnoc1C1CC1 [3-115] | 90 | 100 | 100 | 100 | – | – | – | – | – | – | – | 100 | phytotoxicity, Corn (corn (Zea); dosage 320 g/ha): 10%; phytotoxicity, Wheat (wheat (Triticum); dosage 320 g/ha): 5%; phytotoxicity, Soy bean (soy bean (Glycine); dosage 320 g/ha): 20%
